In PMC8162404, “Proteomimetic surface fragments distinguish targets by function” (Chemical Science, 2020):
Like-named read-outs stand apart in the source and are kept apart here.

Molecular target: T1, Gal-1 (Homo sapiens, UniProt P09382)
T1 construct: made in house; host or cells: E. coli BL21(DE3)
Test: Pull-down assay with immobilized protein and LSM libraries
Type: binding
Conditions: 1:1 binding assumed, read-out: Surface mapping KD (apparent)
Method: Pull-down assays with immobilized test proteins and foldameric LSM libraries were carried out. Proteins were equilibrated with LSM probes, and equilibrium bound fractions (FB) were determined from the unbound fractions measured by HPLC-MS methods. Hits were corrected with background binding of the resin. The protocol allowed all binding events to equilibrate irrespective of affinity, specificity, and binding kinetics. This was essential to judge overall druggability and promiscuity. Importantly, the concentration of protein and the total concentration of foldameric LSMs were equimolar, which minimized competition between the probes. This experimental setup approximated independent binding of individual library members. Results were visualized as heat maps of dissociation constants (Fig. 3).
Pull-down assay and data analysis
Pull-down assay. LSM sublibraries were screened separately as previously described.(2) Experiments were performed in the following buffers: (i) 20 mM pH 7.4 HEPES, 150 mM NaCl, 5 mM CaCl2 for CaM; (ii) 50 mM pH 7.4 HEPES, 150 mM NaCl, 1 mM TCEP, 1 mM CaCl2 for S100 proteins; (iii) 20 mM pH 7.4 HEPES, 150 mM NaCl, 1 mM TCEP for Gal-1 and (iv) 20 mM pH 7.4 HEPES, 150 mM NaCl for RecQ-WH. Assays were performed in paper filter spin cups (Thermo Scientific) with sample volumes of 100 µl. Hexahistidine-tagged proteins were immobilized on previously washed Co-NTA resin (TALON, Takara Bio USA, Inc., Mountain View, CA) in 64 µM final concentration. LSM sublibrary was added, in which each of the 64 library members were used at a concentration of 1 µM. Samples were incubated at room temperature for 30 min with shaking at 100 rpm. Then, samples were centrifuged at 1000 rpm for 2 min and washed with 100 µl pull-down buffer to remove unbound compounds.
The control experiments were performed using the same compounds and the resin but without the immobilized protein. In case of competitive assays, competitor peptides were added to LSM sublibrary samples in 200 µM final concentration. In the case of Gal-1, lactose (competitor) was used in a concentration of 10 mM. Experiments were performed at least twice. Mean […]
LC-MS methods and parameters. HPLC/ESI-MS analysis was used to characterize the samples from the pull-down assay. LC-MS analysis was performed with a Thermo Scientific Dionex UltiMate 3000 HPLC system interfaced to an LTQ ion trap mass spectrometer (Thermo Electron Corp., San Jose, CA, USA). Samples were injected onto an Aeris Widepore XB-C18 (250 x 4.6 mm) analytical HPLC column using gradient elution 5-80 % solution B during 25 minutes. For pull-down samples, eluent composition was 0.1% acetic acid in distilled water (Solution A) and 0.1% acetic acid in acetonitrile (solution B). Mass spectra were acquired in full scan mode from 200 to 2000 m/z range. For overlapping peaks, selective reaction monitoring (SRM) was […]
MS data analysis. Thermo Xcalibur 2.2 software was used for peak identification and integration. The majority of the foldameric fragments could be resolved independently via HPLC-MS/MS measurements based on molecular weight, MS fragmentation pattern and retention time. Peaks of some foldamers with β3-hIle or β3-hLeu in position R2 could not be resolved, these were integrated and averaged. In the processing method, each sample component was associated to a chromatographic peak based on previously identified mass (m/z) and retention time (ref (2) and Table S7-10). Using ICIS peak detection algorithm, the general detection and integration criteria were: smoothing points: 5, baseline window: 80, area noise factor: 5, peak noise factor: 10. Using these processing setups, all raw data files were reprocessed together and analyzed. Errors in peak identification during the automatic processing were corrected manually.
Calculation of the discussed parameters
1. Bound fractions (FB.) were calculated from the HPLC-MS intensity loss of the LSM probes compared to the control where no protein was immobilized to the resin: […]

T1 sequence (P09382 whole entry): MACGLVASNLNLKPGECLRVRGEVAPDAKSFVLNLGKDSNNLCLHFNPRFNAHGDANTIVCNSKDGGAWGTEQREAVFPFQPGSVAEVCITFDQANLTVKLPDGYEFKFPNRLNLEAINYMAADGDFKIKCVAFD

| Structure (SMILES) | Kd (H12 library) | Kd (H14 library) |
| --- | --- | --- |
| CC[C@H](C)[C@@H](CC(=O)N[C@H]1CCC[C@@H]1C(=O)N[C@H]1CCC[C@@H]1C(N)=O)NC(=O)[C@H]1CCC[C@@H]1NC(=O)[C@H]1CCC[C@@H]1NC(=O)C[C@H](CCC(=O)O)NC(=O)[C@H]1CCC[C@@H]1NC(=O)[C@H]1CCC[C@@H]1N [H12 EI] | 244 µM |  |
| CC(C)C[C@@H](CC(=O)N[C@H]1CCC[C@@H]1C(=O)N[C@H]1CCC[C@@H]1C(N)=O)NC(=O)[C@H]1CCC[C@@H]1NC(=O)[C@H]1CCC[C@@H]1NC(=O)C[C@H](CCC(=O)O)NC(=O)[C@H]1CCC[C@@H]1NC(=O)[C@H]1CCC[C@@H]1N [H12 EL] | 244 µM |  |
| CSCC[C@@H](CC(=O)N[C@H]1CCC[C@@H]1C(=O)N[C@H]1CCC[C@@H]1C(N)=O)NC(=O)[C@H]1CCC[C@@H]1NC(=O)[C@H]1CCC[C@@H]1NC(=O)C[C@H](CCC(=O)O)NC(=O)[C@H]1CCC[C@@H]1NC(=O)[C@H]1CCC[C@@H]1N [H12 EM] | 251 µM |  |
| NC(=O)[C@H]1CCC[C@@H]1NC(=O)[C@H]1CCC[C@@H]1NC(=O)C[C@H](CO)NC(=O)[C@H]1CCC[C@@H]1NC(=O)[C@H]1CCC[C@@H]1NC(=O)C[C@H](CCC(=O)O)NC(=O)[C@H]1CCC[C@@H]1NC(=O)[C@H]1CCC[C@@H]1N [H12 ES] | 289 µM |  |
| NC(=O)[C@H]1CCC[C@@H]1NC(=O)[C@H]1CCC[C@@H]1NC(=O)C[C@H](Cc1ccc(O)cc1)NC(=O)[C@H]1CCC[C@@H]1NC(=O)[C@H]1CCC[C@@H]1NC(=O)C[C@H](CCC(=O)O)NC(=O)[C@H]1CCC[C@@H]1NC(=O)[C@H]1CCC[C@@H]1N [H12 EY] | 260 µM |  |
| CC[C@H](C)[C@@H](CC(=O)N[C@H]1CCC[C@@H]1C(=O)N[C@H]1CCC[C@@H]1C(=O)N[C@@H](CC(=O)O)CC(=O)N[C@H]1CCC[C@@H]1C(=O)N[C@H]1CCC[C@@H]1C(N)=O)NC(=O)[C@H]1CCC[C@@H]1NC(=O)[C@H]1CCC[C@@H]1N [H12 ID] | 462 µM |  |
| CC[C@H](C)[C@@H](CC(=O)N[C@H]1CCC[C@@H]1C(=O)N[C@H]1CCC[C@@H]1C(=O)N[C@@H](CC(N)=O)CC(=O)N[C@H]1CCC[C@@H]1C(=O)N[C@H]1CCC[C@@H]1C(N)=O)NC(=O)[C@H]1CCC[C@@H]1NC(=O)[C@H]1CCC[C@@H]1N [H12 IN] | 401 µM |  |
| CC[C@H](C)[C@@H](CC(=O)N[C@H]1CCC[C@@H]1C(=O)N[C@H]1CCC[C@@H]1C(=O)N[C@@H](CCC(N)=O)CC(=O)N[C@H]1CCC[C@@H]1C(=O)N[C@H]1CCC[C@@H]1C(N)=O)NC(=O)[C@H]1CCC[C@@H]1NC(=O)[C@H]1CCC[C@@H]1N [H12 IQ] | 446 µM |  |
| CC(C)C[C@@H](CC(=O)N[C@H]1CCC[C@@H]1C(=O)N[C@H]1CCC[C@@H]1C(=O)N[C@@H](CCC(=O)O)CC(=O)N[C@H]1CCC[C@@H]1C(=O)N[C@H]1CCC[C@@H]1C(N)=O)NC(=O)[C@H]1CCC[C@@H]1NC(=O)[C@H]1CCC[C@@H]1N [H12 LE] | 335 µM |  |
| NCCCC[C@@H](CC(=O)N[C@H]1CCC[C@@H]1C(=O)N[C@H]1CCC[C@@H]1C(N)=O)NC(=O)[C@H]1CCC[C@@H]1NC(=O)[C@H]1CCC[C@@H]1NC(=O)C[C@H](CC(N)=O)NC(=O)[C@H]1CCC[C@@H]1NC(=O)[C@H]1CCC[C@@H]1N [H12 NK] | 430 µM |  |
| N=C(N)NCCC[C@@H](CC(=O)N[C@H]1CCC[C@@H]1C(=O)N[C@H]1CCC[C@@H]1C(=O)N[C@@H](CO)CC(=O)N[C@H]1CCC[C@@H]1C(=O)N[C@H]1CCC[C@@H]1C(N)=O)NC(=O)[C@H]1CCC[C@@H]1NC(=O)[C@H]1CCC[C@@H]1N [H12 RS] | 242 µM |  |
| CC(C)[C@@H](CC(=O)N[C@H]1CCC[C@@H]1C(=O)N[C@H]1CCC[C@@H]1C(=O)N[C@@H](CC(=O)O)CC(=O)N[C@H]1CCC[C@@H]1C(=O)N[C@H]1CCC[C@@H]1C(N)=O)NC(=O)[C@H]1CCC[C@@H]1NC(=O)[C@H]1CCC[C@@H]1N [H12 VD] | 480 µM |  |
| CC(C)[C@@H](CC(=O)N[C@H]1CCC[C@@H]1C(=O)N[C@H]1CCC[C@@H]1C(=O)N[C@@H](CC(N)=O)CC(=O)N[C@H]1CCC[C@@H]1C(=O)N[C@H]1CCC[C@@H]1C(N)=O)NC(=O)[C@H]1CCC[C@@H]1NC(=O)[C@H]1CCC[C@@H]1N [H12 VN] | 497 µM |  |
| CC(C)[C@@H](CC(=O)N[C@H]1CCC[C@@H]1C(=O)N[C@H]1CCC[C@@H]1C(=O)N[C@H](CC(=O)N[C@H]1CCC[C@@H]1C(=O)N[C@H]1CCC[C@@H]1C(N)=O)[C@@H](C)O)NC(=O)[C@H]1CCC[C@@H]1NC(=O)[C@H]1CCC[C@@H]1N [H12 VT] | 432 µM |  |
| C[C@@H](CC(=O)N[C@H]1CCCC[C@@H]1C(=O)N[C@H]1CCCC[C@@H]1C(=O)N[C@@H](CC(=O)O)CC(=O)N[C@H]1CCCC[C@@H]1C(N)=O)NC(=O)[C@H]1CCCC[C@@H]1N [H14 AD] |  | 168 µM |

Results, then the compound that gave them:

| Kd (H12 library) | Kd (H14 library) | Structure (SMILES) |
| --- | --- | --- |
| 200 µM |  | NCCCC[C@@H](CC(=O)N[C@H]1CCC[C@@H]1C(=O)N[C@H]1CCC[C@@H]1C(N)=O)NC(=O)[C@H]1CCC[C@@H]1NC(=O)[C@H]1CCC[C@@H]1NC(=O)C[C@H](CCC(=O)O)NC(=O)[C@H]1CCC[C@@H]1NC(=O)[C@H]1CCC[C@@H]1N [H12 EK] |
| 236 µM |  | NC(=O)CC[C@@H](CC(=O)N[C@H]1CCC[C@@H]1C(=O)N[C@H]1CCC[C@@H]1C(N)=O)NC(=O)[C@H]1CCC[C@@H]1NC(=O)[C@H]1CCC[C@@H]1NC(=O)C[C@H](CCC(=O)O)NC(=O)[C@H]1CCC[C@@H]1NC(=O)[C@H]1CCC[C@@H]1N [H12 EQ] |
| 372 µM |  | C[C@@H](O)[C@@H](CC(=O)N[C@H]1CCC[C@@H]1C(=O)N[C@H]1CCC[C@@H]1C(N)=O)NC(=O)[C@H]1CCC[C@@H]1NC(=O)[C@H]1CCC[C@@H]1NC(=O)C[C@H](CCC(=O)O)NC(=O)[C@H]1CCC[C@@H]1NC(=O)[C@H]1CCC[C@@H]1N [H12 ET] |
| 316 µM |  | CC(C)[C@@H](CC(=O)N[C@H]1CCC[C@@H]1C(=O)N[C@H]1CCC[C@@H]1C(N)=O)NC(=O)[C@H]1CCC[C@@H]1NC(=O)[C@H]1CCC[C@@H]1NC(=O)C[C@H](CCC(=O)O)NC(=O)[C@H]1CCC[C@@H]1NC(=O)[C@H]1CCC[C@@H]1N [H12 EV] |
| 235 µM |  | NC(=O)[C@H]1CCC[C@@H]1NC(=O)[C@H]1CCC[C@@H]1NC(=O)C[C@H](Cc1c[nH]c2ccccc12)NC(=O)[C@H]1CCC[C@@H]1NC(=O)[C@H]1CCC[C@@H]1NC(=O)C[C@H](CCC(=O)O)NC(=O)[C@H]1CCC[C@@H]1NC(=O)[C@H]1CCC[C@@H]1N [H12 EW] |
| 212 µM |  | NCCCC[C@@H](CC(=O)N[C@H]1CCC[C@@H]1C(=O)N[C@H]1CCC[C@@H]1C(=O)N[C@@H](CCC(=O)O)CC(=O)N[C@H]1CCC[C@@H]1C(=O)N[C@H]1CCC[C@@H]1C(N)=O)NC(=O)[C@H]1CCC[C@@H]1NC(=O)[C@H]1CCC[C@@H]1N [H12 KE] |
| 470 µM |  | CC(C)C[C@@H](CC(=O)N[C@H]1CCC[C@@H]1C(=O)N[C@H]1CCC[C@@H]1C(=O)N[C@@H](CC(=O)O)CC(=O)N[C@H]1CCC[C@@H]1C(=O)N[C@H]1CCC[C@@H]1C(N)=O)NC(=O)[C@H]1CCC[C@@H]1NC(=O)[C@H]1CCC[C@@H]1N [H12 LD] |
| 250 µM |  | N=C(N)NCCC[C@@H](CC(=O)N[C@H]1CCC[C@@H]1C(=O)N[C@H]1CCC[C@@H]1C(=O)N[C@@H](CC(=O)O)CC(=O)N[C@H]1CCC[C@@H]1C(=O)N[C@H]1CCC[C@@H]1C(N)=O)NC(=O)[C@H]1CCC[C@@H]1NC(=O)[C@H]1CCC[C@@H]1N [H12 RD] |
| 469 µM |  | CC(C)[C@@H](CC(=O)N[C@H]1CCC[C@@H]1C(=O)N[C@H]1CCC[C@@H]1C(=O)N[C@@H](CCC(=O)O)CC(=O)N[C@H]1CCC[C@@H]1C(=O)N[C@H]1CCC[C@@H]1C(N)=O)NC(=O)[C@H]1CCC[C@@H]1NC(=O)[C@H]1CCC[C@@H]1N [H12 VE] |
| 408 µM |  | CC(C)[C@@H](CC(=O)N[C@H]1CCC[C@@H]1C(=O)N[C@H]1CCC[C@@H]1C(=O)N[C@@H](CO)CC(=O)N[C@H]1CCC[C@@H]1C(=O)N[C@H]1CCC[C@@H]1C(N)=O)NC(=O)[C@H]1CCC[C@@H]1NC(=O)[C@H]1CCC[C@@H]1N [H12 VS] |
